The test relates to A549 cells. Description: Cellular proliferation/cytotoxicity assay (Alamar Blue), A549. It is filed as cell-based. The note with it: Homo sapiens, 72 h, Alamar Blue (Resazurin), read-out: Anti-proliterative/Cytotoxic activity (A549 cells). The procedure:
Cellular Proliferation/Cytotoxicity Assay:
The anti-proliferative activity of the compounds as described herein, is evaluated using the OvCAR3, HCT116 and A549 cell lines and the Alamar Blue (Resazurin) cell viability assay (O'Brien et al. Eur J Biochem 267, 5421-5426, 2000). Resazurin is reduced to the fluorescent resorufin by cellular dehydrogenase activity, correlating with viable, proliferating cells. Test compounds are dissolved as 10 mM solutions in DMSO and subsequently diluted. Cells like HCT116 or A549 cells were seeded into 96 well flat bottom plates at a density of 10000 cells/well (OvCAR3 cells), 1000 cells/well (HCT116 cells) or 2000 cells/well (A549 cells) in a volume of 200 μl/well. 24 hours after seeding, 1 μl each of the compound dilutions are added into each well of the 96 well plates. Each compound dilution is tested as at least as duplicates. Wells containing untreated control cells were filled with 200 μl DMEM (Dulbecco's Modified Eagle Medium) containing 0.5 vol % v:v DMSO. The cells are then incubated with the substances for 72 h at 37° C. in a humidified atmosphere containing 5 vol % CO2. To determine the viability of the cells, 20 μl of a Resazurin solution (90 mg/l) are added. After 4 h incubation at 37° C., the fluorescence is measured by extinction at λ=544 nm and an emission of λ=590 nm (Wallac Victor2; Perkin Elmer, USA). For the calculation of the cell viability, the emission value from untreated cells is set as 100% viability and the fluorescence intensity of treated cells are set in relation to the values of untreated cells. Viabilities are expressed as % values. The corresponding IC50 values of the compounds for cytotoxic activity are determined from the concentration-effect curves by means of non-linear regression. The analysis of the data is performed using a biostatistical program (GraphPad Prism, USA).
Representative IC50 values for anti-proliferative/cytotoxic potency determined in the aforementioned assay follow from the following table, in which the numbers of the compound correspond to the numbers of the examples.

Results on 21 compounds are retold here after US8614218B2, “Fused bicyclic pyrimidines” (Bayer Intellectual Property GmbH, priority 2007, dated 2013).

Where only a bound is given, the exact number is not on record here.

`c1ccc(-c2cn3nccc3nc2-c2ccc(CN3CCC(c4nc(-c5ccncc5)n[nH]4)CC3)cc2)cc1` [Example 71, 6-Phenyl-5-(4-{[4-(3-pyridin-4-yl-1H-1,2,4-triazol-5-yl)piperidin-1-yl]methyl}phenyl)pyrazolo[1,5-a]pyrimidine]: the IC50 is greater than 10 µM.

In the case of `c1ccc(-c2cn3ccnc3nc2-c2ccc(CN3CCC(c4nc(-c5ccc[nH]5)n[nH]4)CC3)cc2)cc1` [Example 68, 6-Phenyl-7-[4-({4-[3-(1H-pyrrol-2-yl)-1H-1,2,4-triazol-5-yl]piperidin-1-yl}methyl)phenyl]imidazo[1,2-a]pyrimidine], the IC50 was less than 10 µM.

As for `Cc1nc2nc(-c3ccc(CN4CCC(c5nc(-c6ccccc6)n[nH]5)CC4)cc3)c(-c3ccccc3)cn2n1` [Example 83, 2-methyl-6-phenyl-5-(4-{[4-(3-phenyl-1H-1,2,4-triazol-5-yl)piperidin-1-yl]methyl}phenyl)[1,2,4]triazolo[1,5-a]pyrimidine], the IC50 is greater than 10 µM.

On to `c1ccc(-c2cn3ccnc3nc2-c2ccc(CN3CCC(c4nc(-c5ccco5)n[nH]4)CC3)cc2)cc1` [Example 82, 7-[4-({4-[3-(2-furyl)-1H-1,2,4-triazol-5-yl]piperidin-1-yl}methyl)phenyl]-6-phenylimidazo[1,2-a]pyrimidine], for which the IC50 is greater than 10 µM.

In the case of `c1ccc(-c2cn3nc(C4CC4)cc3nc2-c2ccc(CN3CCC(c4n[nH]c(-c5ccccn5)n4)CC3)cc2)cc1` [Example 48, 2-Cyclopropyl-6-phenyl-5-(4-{[4-(5-pyridin-2-yl-1H-1,2,4-triazol-3-yl)piperidin-1-yl]methyl}phenyl)pyrazolo[1,5-a]pyrimidine], the IC50 is less than 10 µM.

With `C#Cc1nc2nc(-c3ccc(CN4CCC(c5n[nH]c(-c6ccccn6)n5)CC4)cc3)c(-c3ccccc3)cn2n1` [Example 53, 2-Ethynyl-6-phenyl-5-(4-{[4-(5-pyridin-2-yl-1H-1,2,4-triazol-3-yl)piperidin-1-yl]methyl}phenyl)[1,2,4]triazolo[1,5-a]pyrimidine], the IC50 is less than 10 µM.

For `c1ccc(-c2cn3nccc3nc2-c2ccc(CN3CCC(c4nc(-c5ccco5)n[nH]4)CC3)cc2)cc1` [Example 81, 5-[4-({4-[3-(2-furyl)-1H-1,2,4-triazol-5-yl]piperidin-1-yl}methyl)phenyl]-6-phenylpyrazolo[1,5-a]pyrimidine], the IC50 was less than 10 µM.

For `Cc1nc2nc(-c3ccc(CN4CCC(c5nc(-c6ccco6)n[nH]5)CC4)cc3)c(-c3ccccc3)cn2n1` [Example 80, 5-[4-({4-[3-(2-furyl)-1H-1,2,4-triazol-5-yl]piperidin-1-yl}methyl)phenyl]-2-methyl-6-phenyl[1,2,4]triazolo[1,5-a]pyrimidine], the IC50 was greater than 10 µM.

In the case of `Brc1nc2nc(-c3ccc(CN4CCC(c5n[nH]c(-c6ccccn6)n5)CC4)cc3)c(-c3ccccc3)cn2n1` [Example 52, 2-Bromo-6-phenyl-5-(4-{[4-(5-pyridin-2-yl-1H-1,2,4-triazol-3-yl)piperidin-1-yl]methyl}phenyl)[1,2,4]triazolo[1,5-a]pyrimidine], the IC50 is less than 10 µM.

Turning to `Cc1cc2nc(-c3ccc(CN4CCC(c5n[nH]c(-c6ccccn6)n5)CC4)cc3)c(-c3ccccc3)cn2n1` [Example 44, 2-Methyl-6-phenyl-5-(4-{[4-(5-pyridin-2-yl-1H-1,2,4-triazol-3-yl)piperidin-1-yl]methyl}phenyl)pyrazolo[1,5-a]pyrimidine], the IC50 is greater than 10 µM.

`COC(=O)c1cc2nc(-c3ccc(CN4CCC(c5n[nH]c(-c6ccccn6)n5)CC4)cc3)c(-c3ccccc3)cn2n1` [Example 77, Methyl 6-phenyl-5-(4-{[4-(5-pyridin-2-yl-1H-1,2,4-triazol-3-yl)piperidin-1-yl]methyl}phenyl)pyrazolo[1,5-a]pyrimidine-2-carboxylate]: the IC50 is less than 10 µM.

In the case of `Cc1cccc(-c2n[nH]c(C3CCN(Cc4ccc(-c5nc6nc(C)nn6cc5-c5ccccc5)cc4)CC3)n2)n1` [Example 74, 2-Methyl-5-[4-({4-[3-(6-methylpyridin-2-yl)-1H-1,2,4-triazol-5-yl]piperidin-1-yl}methyl)phenyl]-6-phenyl[1,2,4]triazolo[1,5-a]pyrimidine], the IC50 was less than 10 µM.

As to `NC(=O)c1cc2nc(-c3ccc(CN4CCC(c5n[nH]c(-c6ccccn6)n5)CC4)cc3)c(-c3ccccc3)cn2n1` [Example 78, 6-Phenyl-5-(4-{[4-(5-pyridin-2-yl-1H-1,2,4-triazol-3-yl)piperidin-1-yl]methyl}phenyl)pyrazolo[1,5-a]pyrimidine-2-carboxamide], the IC50 was greater than 10 µM.

Turning to `c1ccc(-c2cn3nccc3nc2-c2ccc(CN3CCC(c4cc(-c5ccccn5)n[nH]4)CC3)cc2)cc1` [Example 76, 6-Phenyl-5-(4-{[4-(3-pyridin-2-yl-1H-pyrazol-5-yl)piperidin-1-yl]methyl}phenyl)pyrazolo[1,5-a]pyrimidine], the IC50 was greater than 10 µM.

With `c1ccc(-c2cn3nccc3nc2-c2ccc(CN3CCC(c4nc(-c5ccc[nH]5)n[nH]4)CC3)cc2)cc1` [Example 72, 6-Phenyl-5-[4-({4-[3-(1H-pyrrol-2-yl)-1H-1,2,4-triazol-5-yl]piperidin-1-yl}methyl)phenyl]pyrazolo[1,5-a]pyrimidine], the IC50 was less than 10 µM.

For `Cc1nc2nc(-c3ccc(CN4CCC(c5n[nH]c(-c6nccs6)n5)CC4)cc3)c(-c3ccccc3)cn2n1` [Example 43, 2-Methyl-6-phenyl-5-[4-({4-[5-(1,3-thiazol-2-yl)-1H-1,2,4-triazol-3-yl]piperidin-1-yl}methyl)phenyl][1,2,4]triazolo[1,5-a]pyrimidine], the IC50 is less than 10 µM.

Consider `c1ccc(-c2cn3nccc3nc2-c2ccc(CN3CCC(c4nc(-c5nccs5)n[nH]4)CC3)cc2)cc1` [Example 70, 6-Phenyl-5-[4-({4-[3-(1,3-thiazol-2-yl)-1H-1,2,4-triazol-5-yl]piperidin-1-yl}methyl)phenyl]pyrazolo[1,5-a]pyrimidine], for which the IC50 was greater than 10 µM.

On to `CN(C)c1nc2nc(-c3ccc(CN4CCC(c5n[nH]c(-c6ccccn6)n5)CC4)cc3)c(-c3ccccc3)cn2n1` [Example 62, N,N-Dimethyl-6-phenyl-5-(4-{[4-(5-pyridin-2-yl-1H-1,2,4-triazol-3-yl)piperidin-1-yl]methyl}phenyl)[1,2,4]triazolo[1,5-a]pyrimidin-2-amine], for which the IC50 is less than 10 µM.

Turning to `Cc1nc2nc(-c3ccc(CN4CCC(c5nc(-c6ccc[nH]6)n[nH]5)CC4)cc3)c(-c3ccccc3)cn2n1` [Example 73, 2-Methyl-6-phenyl-5-[4-({4-[3-(1H-pyrrol-2-yl)-1H-1,2,4-triazol-5-yl]piperidin-1-yl}methyl)phenyl][1,2,4]triazolo[1,5-a]pyrimidine], the IC50 is less than 10 µM.

With `Nc1nc2nc(-c3ccc(CN4CCC(c5n[nH]c(-c6ccccn6)n5)CC4)cc3)c(-c3ccccc3)cn2n1` [Example 67, 6-Phenyl-5-(4-{[4-(5-pyridin-2-yl-1H-1,2,4-triazol-3-yl)piperidin-1-yl]methyl}phenyl)[1,2,4]triazolo[1,5-a]pyrimidin-2-amine], the IC50 was less than 10 µM.

As to `COc1ccnc(-c2nc(C3CCN(Cc4ccc(-c5nc6nccn6cc5-c5ccccc5)cc4)CC3)n[nH]2)c1` [Example 84, 7-[4-({4-[5-(4-methoxypyridin-2-yl)-1H-1,2,4-triazol-3-yl]piperidin-1-yl}methyl)phenyl]-6-phenylimidazo[1,2-a]pyrimidine], the IC50 was less than 10 µM.
